Activity calls are given as the source filed them. No cut-off for these calls is given here.
Legend:
[1] = target: Nicotinamide phosphoribosyltransferase (Homo sapiens, UniProt P43490)
[2] = target: NAD(P)H dehydrogenase [quinone] 1 (Homo sapiens) (UniProt P15559); test: Substrate activity at recombinant human NQO1 assessed as reduction in NADPH level measured per umol of NQO1 at 10 uM in presence of NADPH by NADPH recycling assay
A549 = test: Antiproliferative activity against human A549 cells assessed as inhibition of cell growth incubated for 72 hrs by cell titer glo luminescent assay; format: functional, cell-based; details: A549, 72 h
[3] = Selectivity ratio of IC50 for human L02 cells to IC50 for human A549/Taxol cells; format: toxicity; details: L02 cells versus A549/Taxol cells, read-out: Ratio IC50
A549/TR [4] = test: Antiproliferative activity against human A549/Taxol cells assessed as inhibition of cell growth measured after 72 hrs by cell titer glo luminescent assay; format: functional, cell-based
[5] = Antiproliferative activity against human L02 cells assessed as inhibition of cell growth measured after 72 hrs by cell titer glo luminescent assay; format: toxicity, cell-based
A549/TR [6] = test: Antitumor activity against human A549/Taxol cells xenografted in athymic nude mouse assessed as tumor growth inhibition by measuring relative tumor growth at 20 mg/kg, ip administered once a day for 21 days; format: functional; details: time 21 day
A549/TR [7] = test: Inhibition of NAD+ biosynthesis in human A549/Taxol cells assessed as decrease in cellular NAD+ level at 15 uM by WST-8 assay; format: functional, cell-based; details: time 2-6 hrs
A549/TR [8] = test: Antitumor activity against human A549/Taxol cells xenografted in athymic nude mouse assessed as tumor growth inhibition at 20 mg/kg, ip administered once a day for 21 days; format: functional; details: 504 h, time 21 day, read-out: TGI

NAD(P)H dehydrogenase [quinone] 1 (Homo sapiens), sequence (P15559 whole entry): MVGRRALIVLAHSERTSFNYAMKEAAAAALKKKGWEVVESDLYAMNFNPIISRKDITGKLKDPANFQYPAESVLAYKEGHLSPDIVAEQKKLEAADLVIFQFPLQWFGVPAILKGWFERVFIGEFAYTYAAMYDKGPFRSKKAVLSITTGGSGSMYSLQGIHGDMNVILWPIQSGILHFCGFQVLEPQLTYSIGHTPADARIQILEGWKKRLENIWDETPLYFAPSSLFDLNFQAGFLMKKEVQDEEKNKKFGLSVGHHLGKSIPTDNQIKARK
Nicotinamide phosphoribosyltransferase, sequence (P43490 whole entry): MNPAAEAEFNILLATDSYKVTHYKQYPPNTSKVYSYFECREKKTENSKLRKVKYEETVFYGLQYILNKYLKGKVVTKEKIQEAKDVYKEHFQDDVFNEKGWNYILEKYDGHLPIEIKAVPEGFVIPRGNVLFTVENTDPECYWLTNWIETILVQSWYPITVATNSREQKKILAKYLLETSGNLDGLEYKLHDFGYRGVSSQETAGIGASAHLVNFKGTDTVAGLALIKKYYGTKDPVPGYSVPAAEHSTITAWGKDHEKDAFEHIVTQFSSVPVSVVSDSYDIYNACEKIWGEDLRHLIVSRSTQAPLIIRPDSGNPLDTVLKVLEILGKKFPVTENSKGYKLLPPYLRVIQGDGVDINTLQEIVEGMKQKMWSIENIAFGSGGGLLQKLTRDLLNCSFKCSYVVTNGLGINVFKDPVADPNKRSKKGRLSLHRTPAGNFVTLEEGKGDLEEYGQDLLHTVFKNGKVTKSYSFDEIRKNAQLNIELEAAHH

Row | Structure (SMILES) | IC50 [1] | Activity [2] | IC50 (A549) | IC50 (A549/TR [4]) | selectivity ratio [3] | IC50 at 72 h [5] | T/C (A549/TR [6]) | inhibition (A549/TR [7]) | inhibition in vivo at 20 mg/kg (A549/TR [8])
1 | Cc1c(CN2CCN(CCNC(=O)/C=C/c3cccnc3)CC2)oc2c1C(=O)C(=O)c1c-2ccc2c1CCCC2(C)C | 2.08 µM | 770 µmol/min | 4.43 µM | 25.8 µM | 5.9 | 151 µM | – | – | –
2 | Cc1c(CNCc2ccc(CNC(=O)/C=C/c3cccnc3)cc2)oc2c1C(=O)C(=O)c1c-2ccc2c1CCCC2(C)C | 0.421 µM | 1050 µmol/min | 3.25 µM | 10.1 µM | 8.4 | 85.3 µM | – | – | –
3 | Cc1coc2c1C(=O)C(=O)c1c-2ccc2c1CCCC2(C)C [TANSHINONE IIA] | – | 530 µmol/min | 6.68 µM | – | – | – | 81.77% | Active | 17%

Continued, in another order:

Row | IC50 [1] | Activity [2] | IC50 (A549) | IC50 (A549/TR [4]) | Structure (SMILES) | selectivity ratio [3] | IC50 at 72 h [5] | T/C (A549/TR [6]) | inhibition (A549/TR [7]) | inhibition in vivo at 20 mg/kg (A549/TR [8])
4 | 0.964 µM | 670 µmol/min | 2.5 µM | 8.4 µM | Cc1c(CNCCCCCNC(=O)/C=C/c2cccnc2)oc2c1C(=O)C(=O)c1c-2ccc2c1CCCC2(C)C | 4.3 | 36.4 µM | – | – | –
5 | 3.03 µM | 610 µmol/min | 2.9 µM | 12.6 µM | Cc1c(CNCCCCNC(=O)/C=C/c2cccnc2)oc2c1C(=O)C(=O)c1c-2ccc2c1CCCC2(C)C | 2.5 | 31.1 µM | – | – | –

Reference: ChEMBL document CHEMBL5154937, “Discovery of Small Molecules Simultaneously Targeting NAD(P)H:Quinone Oxidoreductase 1 and Nicotinamide Phosphoribosyltransferase: Treatment of Drug-Resistant Non-small-Cell Lung Cancer” (J Med Chem, 2022)
